Assay results as given in ChEMBL document CHEMBL1201861, “Genomics of Drug Sensitity in Cancer screening data, Wellcome Trust Sanger Institute”.
pIC50: −log10 of the molar value.

Key:
Assay in all cases: cells
COLO-741 = format: functional, cell-based; conditions: Homo sapiens
Description: SANGER: Inhibition of human COLO-741 cell growth in a cell viability assay.

COR-L105 = format: functional, cell-based; conditions: Homo sapiens;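 further: cell growth inhibition determined with a viability assay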
Description: SANGER: Inhibition of human COR-L105 cell growth in a cell viability assay.

CP66-MEL = format: functional, cell-based; conditions: Homo sapiens;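 further: growth inhibition of CP66-MEL cells determined in a cell viability assay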
Description: SANGER: Inhibition of human CP66-MEL cell growth in a cell viability assay.

Calu-3 = format: functional, cell-based; conditions: Homo sapiens;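 further: growth inhibition of human Calu-3 cells, determined with a cell viability assay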
Description: SANGER: Inhibition of human Calu-3 cell growth in a cell viability assay.

DU-145 = format: functional, cell-based; conditions: Homo sapiens
Description: SANGER: Inhibition of human DU-145 cell growth in a cell viability assay.

EHEB = format: functional, cell-based; conditions: Homo sapiens;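 further: growth inhibition of human EHEB cells, read out with a cell viability assay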
Description: SANGER: Inhibition of human EHEB cell growth in a cell viability assay.

EVSA-T = format: functional, cell-based, Homo sapiens; conditions: Homo sapiens, EVSA-T;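 further: growth inhibition of EVSA-T cells, read out with a cell viability assay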
Description: SANGER: Inhibition of human EVSA-T cell growth in a cell viability assay.

HCC1937 = format: functional, cell-based; conditions: Homo sapiens;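 further: growth inhibition measured with a cell viability read-out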
Description: SANGER: Inhibition of human HCC1937 cell growth in a cell viability assay.

HCT-116 = format: functional, cell-based; conditions: Homo sapiens
Description: SANGER: Inhibition of human HCT-116 cell growth in a cell viability assay.

HO-1-N-1 = format: functional, cell-based; conditions: Homo sapiens;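 further: growth inhibition of human HO-1-N-1 cells, read out with a cell viability assay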
Description: SANGER: Inhibition of human HO-1-N-1 cell growth in a cell viability assay.

HuP-T4 = format: functional, cell-based; conditions: Homo sapiens;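 further: cell viability assay measuring how much HuP-T4 cell growth is inhibited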
Description: SANGER: Inhibition of human HuP-T4 cell growth in a cell viability assay.

KYSE-410 = format: functional, cell-based; conditions: Homo sapiens;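 further: growth inhibition of KYSE-410 cells, measured through a cell viability readout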
Description: SANGER: Inhibition of human KYSE-410 cell growth in a cell viability assay.

KYSE-520 cell line = format: functional, cell-based; conditions: Homo sapiens;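 further: growth inhibition of human KYSE-520 cells, read out with a viability assay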
Description: SANGER: Inhibition of human KYSE-520 cell growth in a cell viability assay.

M14 = format: functional, cell-based; conditions: Homo sapiens;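 further: growth inhibition of M14 cells, read out with a cell viability assay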
Description: SANGER: Inhibition of human M14 cell growth in a cell viability assay.

MC-CAR = format: functional, cell-based, Homo sapiens; conditions: Homo sapiens, MC-CAR;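 further: growth inhibition of the human MC-CAR cell line, read out by a cell viability assay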
Description: SANGER: Inhibition of human MC-CAR cell growth in a cell viability assay.

MC-IXC = format: functional, cell-based; conditions: Homo sapiens;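 further: growth inhibition of MC-IXC cells, read out with a cell viability assay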
Description: SANGER: Inhibition of human MC-IXC cell growth in a cell viability assay.

MDA-MB-175-VII = format: functional, cell-based; conditions: Homo sapiens
MDA-MB-231 = format: functional, cell-based; conditions: Homo sapiens
Description: SANGER: Inhibition of human MDA-MB-231 cell growth in a cell viability assay.

MKN-7 = format: functional, cell-based; conditions: Homo sapiens;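 further: growth inhibition of MKN-7 cells, read out with a cell viability assay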
Description: SANGER: Inhibition of human MKN7 cell growth in a cell viability assay.

MONO-MAC-6 = format: functional, cell-based, Homo sapiens; conditions: Homo sapiens, MONO-MAC-6;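 further: cell viability assay measuring growth inhibition of human MONO-MAC-6 cells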
Description: SANGER: Inhibition of human MONO-MAC-6 cell growth in a cell viability assay.

NALM-6 = format: functional, cell-based, Homo sapiens; conditions: Homo sapiens, NALM-6;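 further: growth inhibition of NALM-6 cells, read out with a cell viability assay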
Description: SANGER: Inhibition of human NALM-6 cell growth in a cell viability assay.

NB12 = format: functional, cell-based; conditions: Homo sapiens;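 further: growth inhibition of human NB12 cells, read out by a cell viability assay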
Description: SANGER: Inhibition of human NB12 cell growth in a cell viability assay.

NCI-H1417 = format: functional, cell-based, Homo sapiens; conditions: Homo sapiens, NCI-H1417;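 further: human NCI-H1417 cells, growth inhibition determined with a cell viability readout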
Description: SANGER: Inhibition of human NCI-H1417 cell growth in a cell viability assay.

NCI-H1792 = format: functional, cell-based; conditions: Homo sapiens;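 further: growth inhibition of human NCI-H1792 cells, read out as cell viability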
Description: SANGER: Inhibition of human NCI-H1792 cell growth in a cell viability assay.

NCI-H2196 = format: functional, cell-based, Homo sapiens; conditions: Homo sapiens, NCI-H2196; read-out: IC50;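 further: cell viability assay used as the readout of growth inhibition in NCI-H2196 cells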
Description: SANGER: Inhibition of human NCI-H2196 cell growth in a cell viability assay.

NCI-H2405 = format: functional, cell-based; conditions: Homo sapiens;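 further: growth inhibition of the human cell line, read out with a cell viability assay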
Description: SANGER: Inhibition of human NCI-H2405 cell growth in a cell viability assay.

NCI-H345 = format: functional, cell-based, Homo sapiens; conditions: Homo sapiens, NCI-H345;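 further: growth inhibition of NCI-H345 cells measured with a cell viability assay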
Description: SANGER: Inhibition of human NCI-H345 cell growth in a cell viability assay.

NCI-H719 = format: functional, cell-based, Homo sapiens; conditions: Homo sapiens, NCI-H719;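 further: growth inhibition of the cultured cell line, read out with a viability assay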
Description: SANGER: Inhibition of human NCI-H719 cell growth in a cell viability assay.

NCI-H889 = format: functional, cell-based, Homo sapiens; conditions: Homo sapiens, NCI-H889;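 further: cell growth inhibition of the cell line, read out with a viability assay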
Description: SANGER: Inhibition of human NCI-H889 cell growth in a cell viability assay.

OAW-42 = format: functional, cell-based; conditions: Homo sapiens;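 further: growth inhibition of OAW-42 cells, read out with a cell viability assay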
Description: SANGER: Inhibition of human OAW-42 cell growth in a cell viability assay.

OE33 = format: functional, cell-based; conditions: Homo sapiens;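 further: growth inhibition of human OE33 cells, measured by a cell viability assay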
Description: SANGER: Inhibition of human OE33 cell growth in a cell viability assay.

OVCAR-8 = format: functional, cell-based; conditions: Homo sapiens;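 further: growth inhibition of human OVCAR-8 cells, read out by a cell viability assay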
Description: SANGER: Inhibition of human OVCAR-8 cell growth in a cell viability assay.

PA-1 = format: functional, cell-based; conditions: Homo sapiens;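 further: IC50 for suppression of PA-1 cell proliferation, determined with a cell viability read-out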
Description: SANGER: Inhibition of human PA-1 cell growth in a cell viability assay.

PANC-03-27 = format: functional, cell-based; conditions: Homo sapiens
Description: SANGER: Inhibition of human PANC-03-27 cell growth in a cell viability assay.

PFSK-1 = format: functional, cell-based; conditions: Homo sapiens;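 further: cell viability assay measuring how strongly compounds suppress growth of human PFSK-1 cells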
Description: SANGER: Inhibition of human PFSK-1 cell growth in a cell viability assay.

RMG-I = format: functional, cell-based; conditions: Homo sapiens;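 further: growth inhibition of human RMG-I cells, read out with a cell viability assay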
Description: SANGER: Inhibition of human RMG-I cell growth in a cell viability assay.

RT-112 = format: functional, cell-based; conditions: Homo sapiens
Description: SANGER: Inhibition of human RT-112 cell growth in a cell viability assay.

Raji = format: functional, cell-based, Homo sapiens; conditions: Homo sapiens, Raji;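 further: cell viability assay measuring inhibition of Raji cell growth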
Description: SANGER: Inhibition of human Raji cell growth in a cell viability assay.

SCLC-21H = format: functional, cell-based, Homo sapiens; conditions: Homo sapiens, SCLC-21H;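 further: growth inhibition of cultured human SCLC-21H cells, read out with a cell viability assay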
Description: SANGER: Inhibition of human SCLC-21H cell growth in a cell viability assay.

SF-295 = format: functional, cell-based; conditions: Homo sapiens;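 further: growth inhibition of SF-295 cells, read out with a cell viability assay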
Description: SANGER: Inhibition of human SF295 cell growth in a cell viability assay.

SNU-449 = format: functional, cell-based; conditions: Homo sapiens
Description: SANGER: Inhibition of human SNU-449 cell growth in a cell viability assay.

T-24 = format: functional, cell-based; conditions: Homo sapiens;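 further: growth inhibition of T-24 cells, read out with a cell viability assay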
Description: SANGER: Inhibition of human T-24 cell growth in a cell viability assay.

T47D = format: functional, cell-based; conditions: Homo sapiens;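 further: growth inhibition of human T47D cells, measured with a cell viability assay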
Description: SANGER: Inhibition of human T47D cell growth in a cell viability assay.

8305C = format: functional, cell-based; conditions: Homo sapiens
Description: SANGER: Inhibition of human 8305C cell growth in a cell viability assay.

A2058 = format: functional, cell-based; conditions: Homo sapiens;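 further: reduction of A2058 cell growth, read out with a viability assay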
Description: SANGER: Inhibition of human A2058 cell growth in a cell viability assay.

A-427 = format: functional, cell-based; conditions: Homo sapiens;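 further: growth inhibition of human A-427 cells, read out by a cell viability assay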
Description: SANGER: Inhibition of human A427 cell growth in a cell viability assay.

ARH-77 = format: functional, cell-based, Homo sapiens; conditions: Homo sapiens, ARH-77;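 further: growth inhibition of ARH-77 cells, read out by a cell viability assay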
Description: SANGER: Inhibition of human ARH-77 cell growth in a cell viability assay.

ASPC1 = format: functional, cell-based; conditions: Homo sapiens;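 further: growth inhibition of AsPC-1 cells, read out with a cell viability assay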
Description: SANGER: Inhibition of human AsPC-1 cell growth in a cell viability assay.

BCPAP = format: functional, cell-based; conditions: Homo sapiens;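 further: growth inhibition of BCPAP cells, read out in a cell viability assay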
Description: SANGER: Inhibition of human BCPAP cell growth in a cell viability assay.

BHT-101 = format: functional, cell-based; conditions: Homo sapiens
Description: SANGER: Inhibition of human BHT-101 cell growth in a cell viability assay.

BOKU = format: functional, cell-based; conditions: Homo sapiens;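 further: growth inhibition of the human BOKU cell line, read out by a cell viability assay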
Description: SANGER: Inhibition of human BOKU cell growth in a cell viability assay.

C3A = format: functional, cell-based; conditions: Homo sapiens;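 further: growth inhibition of C3A human cells, quantified with a cell viability readout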
Description: SANGER: Inhibition of human C3A cell growth in a cell viability assay.

CAKI-1 = format: functional, cell-based; conditions: Homo sapiens;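 further: growth inhibition of CAKI-1 cells, measured by a cell viability assay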
Description: SANGER: Inhibition of human CAKI-1 cell growth in a cell viability assay.

CAL-27 = format: functional, cell-based; conditions: Homo sapiens;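 further: Viability-based readout, IC50 reflecting inhibition of CAL-27 cell growth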
Description: SANGER: Inhibition of human CAL-27 cell growth in a cell viability assay.

CAL-62 = format: functional, cell-based; conditions: Homo sapiens;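 further: growth inhibition of CAL-62 cells, read out with a cell viability assay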
Description: SANGER: Inhibition of human CAL-62 cell growth in a cell viability assay.

U-698-M = format: functional, cell-based, Homo sapiens; conditions: Homo sapiens, U-698-M
Description: SANGER: Inhibition of human U-698-M cell growth in a cell viability assay.

UACC-812 = format: functional, cell-based; conditions: Homo sapiens
Description: SANGER: Inhibition of human UACC-812 cell growth in a cell viability assay.

WM-115 = format: functional, cell-based; conditions: Homo sapiens
Description: SANGER: Inhibition of human WM-115 cell growth in a cell viability assay.

COLO-679 = format: functional, cell-based; conditions: Homo sapiens
Description: SANGER: Inhibition of human COLO-679 cell growth in a cell viability assay.

Measured: pIC50

O=S(=O)(O)c1ccc2cc(/N=N/c3cc(S(=O)(=O)O)c4cccnc4c3O)ccc2c1
< 4.80: all assays above
